From PubChem BioAssay AID1389 (Sanford-Burnham Center for Chemical Genomics, 2008)
Activity calls are given as the source filed them.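 Rule for the calls: active = no visible ATF-4 stress protein band on the western blot after compound pretreatment and chemical ER stress; inactive = the rest.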

These compounds were tested on CSM14.1 cells, thapsigargin-induced ATF-4 Western blot (assay: blockers of ATF-4 protein induction, late-stage follow-up, mechanism study for ER stress cell death inhibitors, CSM14.1 cells, thapsigargin, Western blot (AID 1389)).
`CSc1ccc(C2Nc3ccccc3NC3=C2C(=O)CC(c2ccccc2)C3)cc1` (stereo unspecified) was tested, and the outcome was “inactive”.
For `COc1ccc(C2CC(=O)C3=C(C2)Nc2ccccc2NC3c2ccccc2C(F)(F)F)cc1OC` (stereo unspecified), the outcome was “inactive”.
For `CC1(C)CC(=O)C2=C(C1)Nc1ccccc1NC2c1ccc(-c2ccccc2)cc1` (stereo unspecified), the outcome was “inactive”.
`CCOc1cc(C2Nc3ccccc3NC3=C2C(=O)CC(c2ccc(OC)cc2)C3)cc(Cl)c1O` (stereo unspecified) was tested, and the outcome was “inactive”.
With `COc1ccc(C2CC(=O)C3=C(C2)Nc2ccccc2NC3c2cccc(Br)c2)cc1OC` (stereo unspecified) the outcome was “inactive”.
With `COc1ccc(C2CC(=O)C3=C(C2)Nc2ccccc2NC3c2cccc(Oc3ccccc3)c2)cc1OC` (stereo unspecified) the outcome was “inactive”.
With `COc1ccc(C2CC(=O)C3=C(C2)Nc2ccccc2NC3c2cc(C)ccc2C)cc1` (stereo unspecified) the outcome was “active”.
For `CCOc1cccc(C2Nc3ccccc3NC3=C2C(=O)CC(c2ccc(OC)cc2)C3)c1` (stereo unspecified), the outcome was “inactive”.
For `O=C1CC(c2ccccc2)CC2=C1C(c1c(F)cccc1Cl)Nc1ccccc1N2` (stereo unspecified), the outcome was “inactive”.
With `COc1ccc(C2CC(=O)C3=C(C2)Nc2ccccc2NC3c2cccc(C(F)(F)F)c2)cc1OC` (stereo unspecified) the outcome was “inactive”.
With `CCCOc1ccc(C2Nc3ccccc3NC3=C2C(=O)CC(c2ccc(OC)c(OC)c2)C3)cc1` (stereo unspecified) the outcome was “active”.
